According to publication PMC11882969 (Nature Communications, 2025):
Where “and” joins values, the source holds several entries; their conditions need not be identical. Identical values can stand only once.

Assays:
[1] = target: T1, CB1 (rCB1) (Rattus norvegicus, UniProt P20272); test: Radioligand competition binding, [3H]-CP-55,940, rat brain membranes
[2] = target: T2, hCB1 (Homo sapiens, UniProt P21554); test: bioSensAll ebBRET signaling profiling, hCB1; assay type: cell-based; parameters: host or cells: HEK293SL cells, transient PEI transfection; conditions: for Barr2+GRK2 hCB1 response: Barr2+GRK2 biosensor; for Gi1 hCB1 / GoB hCB1: single replicate values, FigS6a
[3] = target: T1, CB1 (rCB1); test: Single-point radioligand displacement screen; assay type: binding
[4] = target: T2, hCB1; test: Lance Ultra cAMP accumulation assay, CHO cells; assay type: cell-based; parameters: expressed in transfected cells; conditions: replicates, sheet FigureS2a;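 further: human CB1R stably expressed in CHO cells, ligands co-incubated with forskolin at room temperature, read-out is lowering of forskolin-stimulated cAMP accumulation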

T1 sequence (P20272 whole entry): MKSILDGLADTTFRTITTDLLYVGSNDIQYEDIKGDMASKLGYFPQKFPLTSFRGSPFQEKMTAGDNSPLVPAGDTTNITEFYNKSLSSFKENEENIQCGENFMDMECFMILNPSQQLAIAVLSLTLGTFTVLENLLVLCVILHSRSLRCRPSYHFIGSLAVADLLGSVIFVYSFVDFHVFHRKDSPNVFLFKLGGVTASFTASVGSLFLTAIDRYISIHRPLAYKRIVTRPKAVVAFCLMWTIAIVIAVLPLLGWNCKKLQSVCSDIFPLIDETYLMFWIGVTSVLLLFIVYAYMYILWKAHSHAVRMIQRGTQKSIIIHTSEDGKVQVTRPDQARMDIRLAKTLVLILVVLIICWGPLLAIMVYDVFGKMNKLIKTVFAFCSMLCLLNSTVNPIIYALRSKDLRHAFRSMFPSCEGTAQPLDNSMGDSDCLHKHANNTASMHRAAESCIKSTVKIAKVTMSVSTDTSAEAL
T2 sequence (P21554 whole entry): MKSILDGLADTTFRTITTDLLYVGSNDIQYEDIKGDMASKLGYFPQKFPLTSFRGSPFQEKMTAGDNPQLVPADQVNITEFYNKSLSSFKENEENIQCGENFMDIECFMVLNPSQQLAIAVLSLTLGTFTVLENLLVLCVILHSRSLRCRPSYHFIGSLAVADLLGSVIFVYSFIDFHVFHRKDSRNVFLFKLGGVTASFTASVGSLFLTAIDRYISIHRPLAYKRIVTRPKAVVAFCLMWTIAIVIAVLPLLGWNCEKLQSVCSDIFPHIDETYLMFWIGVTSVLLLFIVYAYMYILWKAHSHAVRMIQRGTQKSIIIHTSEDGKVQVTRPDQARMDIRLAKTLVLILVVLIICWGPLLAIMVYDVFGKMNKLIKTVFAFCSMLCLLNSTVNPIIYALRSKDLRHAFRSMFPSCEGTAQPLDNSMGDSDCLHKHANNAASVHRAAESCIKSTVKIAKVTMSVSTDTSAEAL

## Cc1nc(CC2CC2)oc1-c1nc(Cc2cc3c(cc2Br)OCO3)no1 [‘7019]
[1]; log[drug] -3.643
  radioligand binding remaining, competition curve (Figure2e), replicate values: 14.0395 and 10.3537 and 12.7126
[1]; log[drug] -4.35655
  radioligand binding remaining, competition curve (Figure2e), replicate values: 11.9492 and 13.8721 and 12.5783
[1]; log[drug] -5.07
  radioligand binding remaining, competition curve (Figure2e), replicate values: 46.5819 and 49.8809 and 53.387
[1]; log[drug] -5.783
  radioligand binding remaining, competition curve (Figure2e), replicate values: 89.8305 and 82.4446 and 90.6893
[1]; log[drug] -6.496
  radioligand binding remaining, competition curve (Figure2e), replicate values: 105.085 and 92.9907 and 91.4056
[1]; log[drug] -7.21
  radioligand binding remaining, competition curve (Figure2e), replicate values: 98.1356 and 103.28 and 99.3733
[1]; log[drug] -7.923
  radioligand binding remaining, competition curve (Figure2e), replicate values: 89.0395 and 99.5785 and 100.597
[1]; log[drug] -8.636
  radioligand binding remaining, competition curve (Figure2e), replicate values: 97.4011 and 107.312 and 98.9257
[1]; rCB1
  pKi [95% CI]: 5.39 [5.27 –5.52]
[2]; Log [Compound] (M) -4.22186
  Barr2+GRK2 hCB1 response: 62.2028
  Gi1 hCB1: -7.329
  GoB hCB1: -13.0099
[2]; Log [Compound] (M) -4.63927
  Barr2+GRK2 hCB1 response: 5.727
  Gi1 hCB1: -8.042
  GoB hCB1: -13.6002
[2]; Log [Compound] (M) -5.05788
  Barr2+GRK2 hCB1 response: -5.441
  Gi1 hCB1: -10.1639
  GoB hCB1: -11.5515
[2]; Log [Compound] (M) -5.47381
  Barr2+GRK2 hCB1 response: -3.845
  Gi1 hCB1: -10.5282
  GoB hCB1: -15.1627
[2]; Log [Compound] (M) -5.89285
  Barr2+GRK2 hCB1 response: 30.2955
  Gi1 hCB1: -9.467
  GoB hCB1: -15.9787
[2]; Log [Compound] (M) -6.31878
  Barr2+GRK2 hCB1 response: 10.513
  Gi1 hCB1: -6.569
  GoB hCB1: -12.489
[2]; Log [Compound] (M) -6.72585
  Barr2+GRK2 hCB1 response: 12.1083
  Gi1 hCB1: -4.716
  GoB hCB1: -9.694
[2]; Log [Compound] (M) -7.14267
  Barr2+GRK2 hCB1 response: 9.875
  Gi1 hCB1: 3.012
  GoB hCB1: -8.531
[2]; Log [Compound] (M) -7.55284
  Barr2+GRK2 hCB1 response: -7.674
  Gi1 hCB1: 0.08255
  GoB hCB1: -6.326
[2]; Log [Compound] (M) -8
  Barr2+GRK2 hCB1 response: 3.174
  Gi1 hCB1: 2.236
  GoB hCB1: -8.913
[2]; Log [Compound] (M) -8.22186
  Barr2+GRK2 hCB1 response: 10.513
  Gi1 hCB1: 3.4083
  GoB hCB1: -2.3673
[2]; Log [Compound] (M) -8.39794
  Barr2+GRK2 hCB1 response: 2.217
  Gi1 hCB1: 2.078
  GoB hCB1: -8.01
[2]; Log [Compound] (M) -8.68787
  Barr2+GRK2 hCB1 response: -30.0093
  Gi1 hCB1: 0.1776
  GoB hCB1: -4.607
[2]; Log [Compound] (M) -9.15521
  Barr2+GRK2 hCB1 response: -44.3676
  Gi1 hCB1: -0.1708
  GoB hCB1: -5.336
[2]; Log [Compound] (M) -9.61989
  Barr2+GRK2 hCB1 response: -29.3712
  Gi1 hCB1: 0.4151
  GoB hCB1: -6.256
[2]; Log [Compound] (M) -10.0969
  Barr2+GRK2 hCB1 response: -17.8845
  Gi1 hCB1: -0.8202
  GoB hCB1: -5.6139
[2]; Log [Compound] (M) -10.5529
  Barr2+GRK2 hCB1 response: -36.0717
  Gi1 hCB1: 1.635
  GoB hCB1: -5.77
[2]; Log [Compound] (M) -11.0177
  Barr2+GRK2 hCB1 response: -47.2392
  Gi1 hCB1: 0.2092
  GoB hCB1: -3.426
[2]; Log [Compound] (M) -11.4949
  Barr2+GRK2 hCB1 response: -38.6243
  Gi1 hCB1: -0.7251
  GoB hCB1: -5.058
[2]; Log [Compound] (M) -11.9208
  Barr2+GRK2 hCB1 response: -22.6706
  Gi1 hCB1: -0.5034
  GoB hCB1: -3.392
[2]; Log [Compound] (M) -12.3979
  Barr2+GRK2 hCB1 response: -32.5619
  Gi1 hCB1: 1.698
  GoB hCB1: -7.2806
[2]; Log [Compound] (M) -12.8861
  Barr2+GRK2 hCB1 response: -24.5851
  Gi1 hCB1: 0.8586
  GoB hCB1: -4.763
[2]; Log [Compound] (M) -13.3979
  Barr2+GRK2 hCB1 response: -2.25
[2]; Log [Compound] (M) -13
  Gi1 hCB1: 6.94
  GoB hCB1: -5.215
[2]; Log [Compound] (M) cell empty
  Gi1 hCB1: 3.028
  GoB hCB1: -6.482
[3]; 10 µM, 1 µM or 300 nM by cell colour (not visible)
  % 1H-CP-55,940 displacement (mean) from single point screen: 69.08%
[3]; Figure 1c source data, replicate 1
  rep1_displacement: 67.1
[3]; Figure 1c source data, replicate 2
  rep2_displacement: 70.3
[3]; Figure 1c source data, replicate 3
  rep3_displacement: 69.9
[4]; compound 0.01 nM
  cAMP assay signal, concentration-response point: 0.00339 and 0.00303 and 0.003953
[4]; compound 0.1 nM
  cAMP assay signal, concentration-response point: 0.003311 (2×) and 0.004082
[4]; compound 1 nM
  cAMP assay signal, concentration-response point: 0.003289 and 0.004926 and 0.003401
[4]; compound 10 nM
  cAMP assay signal, concentration-response point: 0.003247 and 0.002457 and 0.002907
[4]; compound 100 nM
  cAMP assay signal, concentration-response point: 0.002793 and 0.0025 and 0.003861
[4]; compound 1000 nM
  cAMP assay signal, concentration-response point: 0.003175 and 0.003571 and 0.003759
[4]; compound 10000 nM
  cAMP assay signal, concentration-response point: 0.00431 and 0.005952* and 0.003571
[4]; compound 100000 nM
  cAMP assay signal, concentration-response point: 0.0007716 and 0.001742 and 0.0006817
